Assay results reported in ChEMBL document CHEMBL1201862, “PubChem BioAssay data set” (2004).
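1) Cells in 96-well plates. 2) Compound, 48 h, 5 concentrations. 3) Linear interpolation between surrounding doses. 4) Unreached endpoint = highest concentration. At the GI50, growth is halved.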 Calls of active or inactive are those of the source. No stated cut-off is given here; in the data, active = GI50 up to about 1.1 µM and inactive = higher.

How the values were obtained:
Assay in all cases: growth of human tumour cells (NCI), 48 h
RPMI-8226 = tested on: RPMI-8226
HOP-62 = tested on: HOP-62
UACC-257 = tested on: UACC-257
RXF 393 = tested on: RXF 393
CAKI-1 = tested on: CAKI-1
ACHN = tested on: ACHN
NCI-H23 = tested on: NCI-H23
OVCAR-4 = tested on: OVCAR-4
SF-268 = tested on: SF-268
SK-MEL-5 = tested on: SK-MEL-5
IGROV-1 = tested on: IGROV-1
K562 = tested on: K562
HL-60 = tested on: HL-60
SF-295 = tested on: SF-295
HCT-116 = tested on: HCT-116
MDA-MB-435 = tested on: MDA-MB-435
MOLT-4 = tested on: MOLT-4
HT-29 = tested on: HT-29
M14 = tested on: M14
SK-OV-3 = tested on: SK-OV-3

Measured: GI50

O=C(Nc1nc(C23CC4CC(CC(C4)C2)C3)cs1)c1cc2cc(Cl)ccc2oc1=O
inactive: RPMI-8226 > 100 µM | HOP-62 > 100 µM | UACC-257 > 100 µM | RXF 393 > 100 µM | CAKI-1 > 100 µM | ACHN > 100 µM | NCI-H23 > 100 µM | OVCAR-4 > 100 µM | SF-268 > 10 µM | SK-MEL-5 > 100 µM | IGROV-1 > 100 µM | K562 > 100 µM | HL-60 > 100 µM | SF-295 > 100 µM | HCT-116 > 100 µM | MDA-MB-435 > 100 µM | MOLT-4 > 100 µM | HT-29 > 100 µM

O=C(Cc1csc(N/N=C2\C(=O)Nc3ccccc32)n1)Nc1ccccc1
inactive: HOP-62 18.1 µM | UACC-257 25 µM | M14 38.3 µM | RXF 393 62.7 µM | CAKI-1 23.3 µM | ACHN 21.6 µM | NCI-H23 38.9 µM | OVCAR-4 41.5 µM | SF-268 17.7 µM | SK-OV-3 30.3 µM | SK-MEL-5 15.3 µM | IGROV-1 11.9 µM | HL-60 37.1 µM | SF-295 28.9 µM | HCT-116 21.4 µM | MDA-MB-435 39.5 µM | MOLT-4 42.5 µM | HT-29 27 µM

N#Cc1c(N)c2c(c(-c3ccccc3)c1-c1ccccc1)C(=O)N(NC(=O)c1ccccc1)C2=O
inactive: RPMI-8226 31.2 µM | UACC-257 > 100 µM | M14 > 100 µM | RXF 393 60 µM | CAKI-1 > 100 µM | ACHN > 100 µM | OVCAR-4 > 100 µM | SF-268 > 100 µM | SK-MEL-5 68.7 µM | IGROV-1 61.4 µM | K562 96.8 µM | HL-60 58.2 µM | SF-295 > 100 µM | HCT-116 19.6 µM | MDA-MB-435 74.3 µM | MOLT-4 40.6 µM

O=C1c2c(Br)sc(Br)c2C(NC(=O)C(F)(F)F)C1O (stereo not given)
inactive: UACC-257 19.3 µM | M14 20.6 µM | RXF 393 13.3 µM | CAKI-1 17.5 µM | ACHN 29.5 µM | NCI-H23 22.6 µM | OVCAR-4 19.9 µM | SF-268 34 µM | SK-OV-3 19.3 µM | SK-MEL-5 19.5 µM | IGROV-1 20.2 µM | K562 12.1 µM | HL-60 8.39 µM | SF-295 18.7 µM | HCT-116 18.1 µM | MDA-MB-435 23.5 µM | MOLT-4 31.3 µM | HT-29 24.7 µM

COC(=O)/C=C/c1ccc2c(c1)CC1(C2)Cc2cc3c(cc2C1=O)CCC3 (stereo not given)
inactive: RPMI-8226 15 µM | UACC-257 > 100 µM | M14 47 µM | RXF 393 24.5 µM | CAKI-1 36.2 µM | ACHN 39.5 µM | OVCAR-4 43.2 µM | SF-268 46.2 µM | SK-MEL-5 74.8 µM | IGROV-1 24.3 µM | K562 > 100 µM | HL-60 7.98 µM | SF-295 34.1 µM | HCT-116 15.7 µM | MDA-MB-435 > 100 µM | MOLT-4 > 100 µM

NC(=O)c1nnc2cc(F)c(F)cc2c1N
inactive: RPMI-8226 > 100 µM | HOP-62 18.5 µM | UACC-257 > 100 µM | M14 67.5 µM | CAKI-1 61.2 µM | ACHN 52.1 µM | NCI-H23 23.3 µM | OVCAR-4 > 100 µM | SF-268 21.6 µM | SK-OV-3 25.5 µM | SK-MEL-5 87.1 µM | IGROV-1 47.5 µM | K562 > 100 µM | HL-60 > 100 µM | SF-295 27.3 µM | HCT-116 72.1 µM | MDA-MB-435 97.9 µM | MOLT-4 > 100 µM | HT-29 > 100 µM

[N-]=[N+]=CC(=O)CCC(=O)N(c1ccccc1)c1ccccc1
inactive: HOP-62 > 10 µM | UACC-257 > 10 µM | M14 > 10 µM | RXF 393 > 10 µM | ACHN > 10 µM | NCI-H23 > 10 µM | SF-268 > 10 µM | SK-OV-3 > 10 µM | SK-MEL-5 > 10 µM | IGROV-1 > 10 µM | K562 > 10 µM | HL-60 > 10 µM | SF-295 > 10 µM | HCT-116 > 10 µM | MDA-MB-435 > 10 µM | MOLT-4 > 10 µM | HT-29 > 10 µM

CC(C)(C)OC(=O)NC(CSCc1ccc(C(=O)c2ccccc2)cc1)C(=O)N1CCN(CCCCN2c3ccccc3Sc3cc(N=[N+]=[N-])ccc32)CC1 (stereo not given)
inactive: HOP-62 > 100 µM | UACC-257 > 100 µM | M14 > 100 µM | RXF 393 > 100 µM | CAKI-1 > 100 µM | ACHN > 100 µM | NCI-H23 > 100 µM | OVCAR-4 > 100 µM | SF-268 > 100 µM | SK-OV-3 > 100 µM | SK-MEL-5 > 100 µM | IGROV-1 > 100 µM | K562 > 100 µM | HL-60 > 100 µM | SF-295 > 100 µM | HCT-116 > 100 µM | MDA-MB-435 > 100 µM | MOLT-4 > 100 µM | HT-29 > 100 µM

O=C1/C(=C/c2ccccc2)N=C(c2ccccc2)N1n1c(-c2ccccc2)nc2ccccc2c1=O
inactive: RPMI-8226 28.8 µM | HOP-62 > 100 µM | UACC-257 > 100 µM | M14 > 100 µM | RXF 393 86.5 µM | ACHN 89.1 µM | NCI-H23 56.1 µM | OVCAR-4 60 µM | SF-268 64.6 µM | SK-OV-3 > 100 µM | SK-MEL-5 38 µM | IGROV-1 > 100 µM | K562 61.7 µM | HL-60 33.3 µM | SF-295 91 µM | HCT-116 53 µM | MDA-MB-435 87.9 µM | MOLT-4 30.6 µM | HT-29 70.5 µM

CCCCCCCCCCCCCCCCOP(=O)(O)OP(=O)(O)OCC1OC(n2cnc3c(N)ncnc32)C(O)C1O (stereo not given)
inactive: HOP-62 30.5 µM | UACC-257 > 100 µM | M14 64.9 µM | RXF 393 98.4 µM | CAKI-1 99.3 µM | ACHN > 100 µM | NCI-H23 87.1 µM | OVCAR-4 > 100 µM | SF-268 73.8 µM | SK-OV-3 33 µM | SK-MEL-5 > 100 µM | IGROV-1 66.8 µM | K562 46.8 µM | HL-60 66.7 µM | HCT-116 45.5 µM | MDA-MB-435 56.5 µM | MOLT-4 23.5 µM | HT-29 39.9 µM

COc1ccc(-c2nnc3nc4ccccc4n3c2O)cc1
inactive: HOP-62 > 100 µM | UACC-257 > 100 µM | M14 > 100 µM | RXF 393 7.19 µM | CAKI-1 > 100 µM | ACHN > 100 µM | NCI-H23 > 100 µM | OVCAR-4 > 100 µM | SF-268 > 100 µM | SK-MEL-5 > 100 µM | IGROV-1 > 100 µM | HL-60 > 100 µM | SF-295 10 µM | HCT-116 > 100 µM | MDA-MB-435 > 100 µM | MOLT-4 > 100 µM | HT-29 > 100 µM
